Results from publication PMC8839585, “Development of a Real-Time Pectic Oligosaccharide-Detecting Biosensor Using the Rapid and Flexible Computational Identification of Non-Disruptive Conjugation Sites (CINC) Biosensor Design Platform” (Sensors (Basel, Switzerland), 2022).

How the values were obtained:
TogB [1] = target: T1, TogB (Yersinia enterocolitica, UniProt A0ACH1C7V4, D363C); test: stopped-flow fluorescence titration of MDCC-labelled purified protein; assay type: binding
T1 construct: gene yesO; TogB without signal secretion peptide, D363C conjugated to MDCC
T1 sequence (A0ACH1C7V4 27-430 D363C): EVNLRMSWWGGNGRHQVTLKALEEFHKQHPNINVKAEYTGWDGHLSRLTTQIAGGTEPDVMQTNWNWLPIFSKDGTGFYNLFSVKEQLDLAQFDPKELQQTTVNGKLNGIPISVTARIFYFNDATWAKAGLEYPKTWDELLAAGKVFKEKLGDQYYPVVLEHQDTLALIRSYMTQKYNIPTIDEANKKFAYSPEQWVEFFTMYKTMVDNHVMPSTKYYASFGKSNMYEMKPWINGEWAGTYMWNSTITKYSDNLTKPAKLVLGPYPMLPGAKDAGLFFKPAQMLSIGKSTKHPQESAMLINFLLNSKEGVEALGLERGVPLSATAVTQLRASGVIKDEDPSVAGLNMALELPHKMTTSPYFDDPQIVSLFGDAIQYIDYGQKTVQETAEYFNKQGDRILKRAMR

TogB [2] = target: T1, TogB; test: equilibrium fluorescence change of MDCC-labelled purified protein at […] ligand (n = […]); assay type: binding

`O=C(O)[C@H]1O[C@H](O[C@@H]2[C@H](O)[C@@H](O)C(O)O[C@@H]2C(=O)O)[C@H](O)[C@@H](O)[C@H]1O` (stereo partly drawn) [digalUA, digalacturonic acid] was tested, and the Kd (TogB [1]) was 6 ± 1 µM.

Work on `O=C(O)[C@H]1O[C@H](O[C@@H]2[C@H](O)[C@@H](O)[C@@H](O[C@@H]3[C@H](O)[C@@H](O)C(O)O[C@@H]3C(=O)O)O[C@@H]2C(=O)O)[C@H](O)[C@@H](O)[C@H]1O` (stereo partly drawn) [trigalUA, trigalacturonic acid] yielded a fluorescence change (TogB [2]) of −44%.

In the case of `O=C(O)C1=C[C@H](O)[C@@H](O)[C@@H](O[C@@H]2[C@H](O)[C@@H](O)C(O)O[C@@H]2C(=O)O)O1` (stereo partly drawn) [unsatdigalUA, 4,5-unsaturated digalacturonic acid], the Kd (TogB [1]) is reported as 1.3 ± 0.5 µM.
